Test results as given in patent US20230036854A1, “HETEROCYCLIC SPIRO-COMPOUNDS AS AM2 RECEPTOR INHIBITORS” (THE UNIVERSITY OF SHEFFIELD, priority 2018, published 2023).

The compounds below were run against T1, AM2 receptor (1321N1 cells transfected with CALCRL+RAMP3) (Homo sapiens, UniProt O60896+Q16602) (assay: AM2 receptor inhibition, LANCE cAMP agonist-antagonist competition assay). Details: inhibition of AM induced cAMP activation, read-out: AM2 D2 protocol: pIC50 (converted).
T1 construct: host or cells: 1321N1 cells
T1 sequence (Q16602 23-461): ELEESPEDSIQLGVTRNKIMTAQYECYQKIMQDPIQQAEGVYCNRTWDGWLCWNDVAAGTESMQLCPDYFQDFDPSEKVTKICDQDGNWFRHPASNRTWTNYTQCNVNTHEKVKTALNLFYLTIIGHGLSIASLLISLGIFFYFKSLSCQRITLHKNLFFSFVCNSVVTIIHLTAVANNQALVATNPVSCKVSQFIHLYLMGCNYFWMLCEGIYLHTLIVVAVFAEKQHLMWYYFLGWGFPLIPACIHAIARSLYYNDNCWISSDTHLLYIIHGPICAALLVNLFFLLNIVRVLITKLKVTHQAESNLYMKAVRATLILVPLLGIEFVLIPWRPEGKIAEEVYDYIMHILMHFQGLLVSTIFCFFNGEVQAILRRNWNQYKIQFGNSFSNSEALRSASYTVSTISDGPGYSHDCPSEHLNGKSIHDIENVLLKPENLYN
T1 sequence (O60896 24-148): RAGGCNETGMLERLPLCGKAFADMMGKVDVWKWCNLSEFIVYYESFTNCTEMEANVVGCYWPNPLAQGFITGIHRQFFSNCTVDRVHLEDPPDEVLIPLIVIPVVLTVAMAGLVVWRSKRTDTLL
Type: cell-based
Procedure: Compounds were assessed for their ability to inhibit ligand-induced elevations of cAMP, using the Perkin Elmer LANCE cAMP assay using commercially-available cells expressing a specific receptor of interest using the following general procedure:
Compounds were prepared in dimethyl sulfoxide (DMSO—99.9% pure) (Sigma Aldrich, Cat #: D4540) added to powder stocks to produce a 20 mM solution (100% DMSO) that was sonicated at 37° C. for 10 minutes to fully dissolve the compounds. The 20 mM stocks were diluted further in DMSO to produce a 2 mM solution that was sonicated at 37° C. for 10 minutes. 2 mM stocks were dissolved in assay/stimulation buffer to produce a 400 μM solution that was sonicated at 37° C. for 10 minutes for all cAMP assays. All stocks were stored at −20° C. Then serial dilution (Dilution factor: 10) was performed to achieve the desire experimental concentrations.
Competition assays were performed according to the manufactures instructions using LANCE® TR-FRET cAMP assay kit (Perkin Elmer, Cat #: AD0264). Serial dilutions (3 μl/well) of the molecules were plated in a 384-well OptiPlate (Perkin Elmer, Cat #: 6007299) in duplicates. Appropriate controls (100% stimulation: Forskolin and 0% stimulation: Vehicle control) (6 μl/well) were included in each plate for data normalization. Following the compound addition, 6 μl of G-protein coupled receptor overexpressing cells/Alexa Fluor antibody solution (1:100 dilution) was added in each well at a desired density of 2500cells/well. The overexpressing cell lines were purchased from DiscoveRx, Birmingham, UK. After spinning the plate at 1000 rpm for 1 minute and vortexing briefly, the cells were pre-incubated with the compounds for 30 minutes at room temperature (covered). Then 3 μl of the equivalent peptide ligand (EC50 dose) was added to all the wells except vehicle and forskolin controls. The plate were then spun down at 1000 rpm for 1 minute and once finished they were vortexed briefly and covered. Cells were stimulated in the presence of the ligands for 15 minutes at room temperature. After stimulation 12 μl of detection mix (Europium-Chelate streptavidin/biotinylated cAMP tracer solution) was added to all wells and incubated for 60 minutes at room temperature. The plate was then read on the Enspire multimode Plate reader (Perkin Elmer), at; 320/340 nm excitation and 615/665 nm emission was recorded.
Assay/Stimulation Buffer (30 mL)—pH 7.4 • 28 mL Hank's Balanced salt solution (+MgCl2, +CaCl2)—(Thermo Fisher Cat #:14170112) • 150 μl HEPES (1M)—(Thermo Fisher Cat #:15630080) • 400 μl Stabilizer (DTPA) Purified BSA (7.5%)—(Perkin Elmer, Cat #: CR84-100)
The ability of a compound to inhibit the AM induced cAMP activation in AM2 receptor-expressing cells (1321N1 cells transfected with CALCRL+RAMP3, sourced from DiscoverX catalogue number 95-0169C6) was assessed using the protocol above.

Row | IC50 [nM] | Compound
1 | 3.8 | CNCc1ccccc1CN(CC(=O)Nc1ccc2c(c1)C[C@@]1(C2)C(=O)Nc2ncccc21)C(=O)C1(C)CCN(C(=O)c2ccc(C(=O)O)cc2)CC1 [Example 35, (R)-4-(4-Methyl-4-((2-((methylamino)methyl)benzyl)(2-oxo-2-((2′-oxo-1,1′,2′,3-tetrahydrospiro[indene-2,3′-pyrrolo[2,3-b]pyridin]-5-yl)amino)ethyl)carbamoyl)piperidine-1-carbonyl)benzoic Acid]
2 | 1.82 | CNCc1ccccc1CN(CC(=O)Nc1ccc2c(c1)C[C@@]1(C2)C(=O)Nc2ncccc21)C(=O)C1(C)CCN(C)CC1 [Example 36, (R)-1,4-Dimethyl-N-(2-((methylamino)methyl)benzyl)-N-(2-oxo-2-((2′-oxo-1,1′,2′,3-tetrahydrospiro[indene-2,3′-pyrrolo[2,3-b]pyridin]-5-yl)amino)ethyl)piperidine-4-carboxamide]
3 | 35.5 | CNCc1ccccc1CN(CC(=O)Nc1ccc2c(c1)C[C@@]1(C2)C(=O)Nc2ncccc21)C(=O)C1(C)CCN(CC(N)=O)CC1 [Example 37, (R)-1-(2-Amino-2-oxoethyl)-4-methyl-N-(2-((methylamino)methyl)benzyl)-N-(2-oxo-2-((2′-oxo-1,1′,2′,3-tetrahydrospiro[indene-2,3′-pyrrolo[2,3-b]pyridin]-5-yl)amino)ethyl)piperidine-4-carboxamide]
4 | 10.5 | CNCc1ccccc1CN(CC(=O)Nc1ccc2c(c1)CC1(C2)C(=O)Nc2ncccc21)C(=O)C1(C)CCN(CC(F)(F)F)CC1 (centres unmarked) [Example 38, 4-Methyl-N-(2-((methylamino)methyl)benzyl)-N-(2-oxo-2-((2′-oxo-1,1′,2′,3-tetrahydrospiro[indene-2,3′-pyrrolo[2,3-b]pyridin]-5-yl)amino)ethyl)-1-(2,2,2-trifluoroethyl)piperidine-4-carboxamide]
5 | 19.5 | CNCc1ccccc1CN(CC(=O)Nc1ccc2c(c1)C[C@@]1(C2)C(=O)Nc2ncccc21)C(=O)C1(C)CCN(CC(F)(F)F)CC1 [Example 39, (R)-4-Methyl-N-(2-((methylamino)methyl)benzyl)-N-(2-oxo-2-((2′-oxo-1,1′,2′,3-tetrahydrospiro[indene-2,3′-pyrrolo[2,3-b]pyridin]-5-yl)amino)ethyl)-1-(2,2,2-trifluoroethyl)piperidine-4-carboxamide]
6 | 6.31 | CNCc1ccccc1CN(CC(=O)Nc1ccc2c(c1)C[C@@]1(C2)C(=O)Nc2ncccc21)C(=O)C1(C)CCN(Cc2ccccc2)CC1 [Example 40, (R)-1-Benzyl-4-methyl-N-(2-((methylamino)methyl)benzyl)-N-(2-oxo-2-((2′-oxo-1,1′,2′,3-tetrahydrospiro[indene-2,3′-pyrrolo[2,3-b]pyridin]-5-yl)amino)ethyl)piperidine-4-carboxamide]
7 | 1.1 | CNCc1ccccc1CN(CC(=O)Nc1ccc2c(c1)C[C@@]1(C2)C(=O)Nc2ncccc21)C(=O)C1(C)CCN(CCOC)CC1 [Example 41, (R)-1-(2-Methoxyethyl)-4-methyl-N-(2-((methylamino)methyl)benzyl)-N-(2-oxo-2-((2′-oxo-1,1′,2′,3-tetrahydrospiro[indene-2,3′-pyrrolo[2,3-b]pyridin]-5-yl)amino)ethyl)piperidine-4-carboxamide]
8 | 6.46 | CNCc1ccccc1CN(CC(=O)Nc1ccc2c(c1)C[C@@]1(C2)C(=O)Nc2ncccc21)C(=O)C1(C)CCN(CCO)CC1 [Example 42, (R)-1-(2-Hydroxyethyl)-4-methyl-N-(2-((methylamino)methyl)benzyl)-N-(2-oxo-2-((2′-oxo-1,1′,2′,3-tetrahydrospiro[indene-2,3′-pyrrolo[2,3-b]pyridin]-5-yl)amino)ethyl)piperidine-4-carboxamide]
9 | 135 | CNCc1ccccc1CN(CC(=O)Nc1ccc2c(c1)C[C@@]1(C2)C(=O)Nc2ncccc21)C(=O)C1(C)CCN(CC(=O)O)CC1 [Example 43, (R)-2-(4-Methyl-4-((2-((methylamino)methyl)benzyl)(2-oxo-2-((2′-oxo-1,1′,2′,3-tetrahydrospiro[indene-2,3′-pyrrolo[2,3-b]pyridin]-5-yl)amino)ethyl)carbamoyl)piperidin-1-yl)acetic Acid]
10 | 10.7 | CNCc1ccccc1CN(CC(=O)Nc1ccc2c(c1)C[C@@]1(C2)C(=O)Nc2ncccc21)C(=O)C1(C)CCN(CC(=O)N2CCNCC2)CC1 [Example 44, (R)-4-Methyl-N-(2-((methylamino)methyl)benzyl)-N-(2-oxo-2-((2′-oxo-1,1′,2′,3-tetrahydrospiro[indene-2,3′-pyrrolo[2,3-b]pyridin]-5-yl)amino)ethyl)-1-(2-oxo-2-(piperazin-1-yl)ethyl)piperidine-4-carboxamide]
11 | 2.34 | CNCc1ccccc1CN(CC(=O)Nc1ccc2c(c1)CC1(C2)C(=O)Nc2ncccc21)C(=O)C1(C)CCN(CC(=O)O)CC1 (centres unmarked) [Example 45, 2-(4-Methyl-4-((2-((methylamino)methyl)benzyl)(2-oxo-2-((2′-oxo-1,1′,2′,3-tetrahydrospiro[indene-2,3′-pyrrolo[2,3-b]pyridin]-5-yl)amino)ethyl)carbamoyl)piperidin-1-yl)acetic Acid]
12 | 25.7 | CNCc1ccccc1CN(CC(=O)Nc1ccc2c(c1)C[C@@]1(C2)C(=O)Nc2ncccc21)C(=O)C1(C)CCN(Cc2ccc(C(=O)O)cc2)CC1 [Example 46, (R)-4-[[4-Methyl-4-[[2-(methylaminomethyl)phenyl]methyl-[2-oxo-2-[[(3R)-2-oxospiro[1H-pyrrolo[2,3-b]pyridine-3,2′-indane]-5′-yl]amino]ethyl]carbamoyl]-1-piperidyl]methyl]benzoic Acid]
13 | 5.01 | CNCc1ccccc1CN(CC(=O)Nc1ccc2c(c1)C[C@@]1(C2)C(=O)Nc2ncccc21)C(=O)C1(C)CCN(Cc2cccc(C(=O)O)c2)CC1 [Example 47, (R)-3-((4-Methyl-4-((2-((methylamino)methyl)benzyl)(2-oxo-2-((2′-oxo-1,1′,2′,3-tetrahydrospiro[indene-2,3′-pyrrolo[2,3-b]pyridin]-5-yl)amino)ethyl)carbamoyl)piperidin-1-yl)methyl)benzoic Acid]
14 | 1.55 | CNCc1ccccc1CN(CC(=O)Nc1ccc2c(c1)C[C@@]1(C2)C(=O)Nc2ncccc21)C(=O)C1(C)CCN(CC2CCNCC2)CC1 [Example 49, (R)-4-Methyl-N-(2-((methylamino)methyl)benzyl)-N-(2-oxo-2-((2′-oxo-1,1′,2′,3-tetrahydrospiro[indene-2,3′-pyrrolo[2,3-b]pyridin]-5-yl)amino)ethyl)-1-(piperidin-4-ylmethyl)piperidine-4-carboxamide]
15 | 2.19 | CNCc1ccccc1CN(CC(=O)Nc1ccc2c(c1)C[C@@]1(C2)C(=O)Nc2ncccc21)C(=O)C1(C)CCN(Cc2ccncc2)CC1 [Example 50, (R)-4-Methyl-N-(2-((methylamino)methyl)benzyl)-N-(2-oxo-2-((2′-oxo-1,1′,2′,3-tetrahydrospiro[indene-2,3′-pyrrolo[2,3-b]pyridin]-5-yl)amino)ethyl)-1-(pyridin-4-ylmethyl)piperidine-4-carboxamide]
16 | 2.34 | CNCc1ccccc1CN(CC(=O)Nc1ccc2c(c1)CC1(C2)C(=O)Nc2ncccc21)C(=O)C1(C)CCN(C(=O)N2CCCC2)CC1 (centres unmarked) [Example 51, 4-Methyl-N-[[2-(methylaminomethyl)phenyl]methyl]-N-[2-oxo-2-[(2-oxospiro[1H-pyrrolo[2,3-b]pyridine-3,2′-indane]-5′-yl)amino]ethyl]-1-(pyrrolidine-1-carbonyl)piperidine-4-carboxamide]
17 | 14.1 | CNCc1ccccc1CN(CC(=O)Nc1ccc2c(c1)C[C@@]1(C2)C(=O)Nc2ncccc21)C(=O)C1(C)CCN(C(=O)N(C)C)CC1 [Example 53, (R)—N1,N1,4-Trimethyl-N4-(2-((methylamino)methyl)benzyl)-N4-(2-oxo-2-((2′-oxo-1,1′,2′,3-tetrahydrospiro[indene-2,3′-pyrrolo[2,3-b]pyridin]-5-yl)amino)ethyl)piperidine-1,4-dicarboxamide]
